Tests used:
CYP3A4/5 = experiment: Time-dependent CYP inhibition in HLM, CYP3A4/5; format: in vitro ADME, human; settings: 10 μM, 30 min pre-incubation with NADPH
Description: The procedure of time-dependent CYP inhibition was similar to that used for CYP reversible inhibition, as mentioned above, except that a pre-incubation step was added. […] Another appropriate volume of the NADPH-regenerating system and probe substrate were added to initiate the CYP isoform enzyme activity test step. For this step, the incubation period was 10 min, except for CYP2B6, CYP2C8, and CYP3A4/5 (probe substrate: midazolam), which was 3 min to make sure the reaction was under initial linear rates. After incubation for the designated time periods at 37°C, the ice-cold acetonitrile containing IS was added to quench the reaction. […] (Ainactivator/[…] represents the enzyme activity remaining due to the inhibition by the diluted inactivator in the enzyme activity test step, and (Ainactivator/[…] represents the remaining enzyme activity due to pre-incubation loss plus inhibition by the diluted inactivator in the enzyme activity test step.

plasma proteins = experiment: Plasma protein binding (RED), rat plasma; format: in vitro ADME
Description: The plate containing plasma and buffer was equilibrated for 6 h in a 37°C water shaking bath. After incubation, aliquots of buffer and plasma (20 µL) on both sides were collected and precipitated using organic solvents. […] The post-dialysis recovery of amdizalisib was also measured.

OATP1B3 = molecular target: T1, OATP1B3 (Homo sapiens, UniProt Q9NPD5); experiment: OATP1B3 inhibition, β-estradiol 17-(β-D-glucuronide) uptake in transfected HEK293 cells
T1 sequence (Q9NPD5 1-702): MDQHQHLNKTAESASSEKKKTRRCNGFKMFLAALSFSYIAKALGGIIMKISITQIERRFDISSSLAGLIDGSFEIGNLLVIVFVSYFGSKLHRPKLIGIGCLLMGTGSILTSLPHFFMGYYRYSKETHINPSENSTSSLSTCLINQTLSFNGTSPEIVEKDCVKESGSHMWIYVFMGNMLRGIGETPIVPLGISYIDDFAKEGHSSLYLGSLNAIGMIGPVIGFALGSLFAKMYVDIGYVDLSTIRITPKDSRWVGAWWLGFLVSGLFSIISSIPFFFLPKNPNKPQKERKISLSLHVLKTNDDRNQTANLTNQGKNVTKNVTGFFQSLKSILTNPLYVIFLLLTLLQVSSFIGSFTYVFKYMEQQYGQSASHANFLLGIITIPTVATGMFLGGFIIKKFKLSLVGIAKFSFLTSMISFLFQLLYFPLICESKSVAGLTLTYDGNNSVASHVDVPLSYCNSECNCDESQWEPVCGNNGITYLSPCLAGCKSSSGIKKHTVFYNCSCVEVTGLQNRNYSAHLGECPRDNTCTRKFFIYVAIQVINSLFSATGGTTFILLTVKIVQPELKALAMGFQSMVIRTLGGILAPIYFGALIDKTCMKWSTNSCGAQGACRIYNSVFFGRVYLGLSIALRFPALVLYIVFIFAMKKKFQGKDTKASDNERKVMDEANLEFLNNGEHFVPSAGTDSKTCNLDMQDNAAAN
Description: The pre-incubation solutions were removed, and incubation solutions containing the inhibitors and probe substrates (or transport buffer containing an equal volume of vehicle control and probe substrates) were added and incubated at 37°C for 2 min (5 min for OATP1B3). The probe substrate for OAT1 was 4-aminohippuric acid (10 μM), for OAT3 was estrone 3-sulfate (10 μM), for OCT2 was metformin (100 μM), for OATP1B1 was β-estradiol 17-(β-D-glucuronide) (5 μM), for OATP1B3 was β-estradiol 17-(β-D-glucuronide) (10 μM), and for MATE1 and MATE2-K was tetraethylammonium (10 μM). After incubation, cells were washed three times with ice-cold transport buffer (25 mM HEPES, pH 7.4, pH 8.0 for overexpressing MATE1 and MATE2-K HEK293 cells) and lysed in distilled water. The concentrations of probe substrates were determined by LC-MS/MS, and a BCA Kit (Solarbio ®Life Sciences, Beijing, China) was used to determine the protein content in the cell lysate.
where C is the concentration of the drug in the cell lysate (nM), P is the protein concentration of the cell lysate (mg/mL), and T is the incubation time (minute). Uptake ratetest compound is the uptake rate of the substrate in the presence of the test compound. Uptake ratevehicle control is the uptake rate of the substrate in the presence of the vehicle control. Uptake ratepassive is the uptake rate of the substrate in the presence of the positive inhibitor at the top test concentration.

CYP2C19 = experiment: CYP induction in human hepatocytes, CYP2C19 enzyme activity; format: in vitro ADME
Description: […] […] […] Enzyme activity for each CYP isoform was reported as a fold change over vehicle control and the percent of positive control (detailed calculation in Supplementary 1.1). Hepatocytes were harvested with a lysis buffer from RNeasy 96 Kit (Qiagen Inc., Germantown, MD, USA) to isolate RNA, which was analyzed by real-time quantitative polymerase chain reaction (RT-PCR). […] Emax (the maximal observed induction) and EC50 (the concentration that supports half-maximal induction) were estimated by non-linear regression of fold increase in CYP mRNA expression versus concentration plots.
The fold of vehicle control and the percent of positive control were calculated with the formulas below:
Fold of vehicle control = CYPs activity of test compound (or positive control) treated sample / CYPs activity of vehicle control treated sample
% of positive control = [(fold change in treated sample)-1] / [(fold change in positive control)-1] × 100
Based on the enzyme activity, a minimum of 2-fold increase compared to vehicle control for the positive control and ≥40% of the positive control for the test article was considered as the cutoff for a positive signal in in vitro induction assay.

SMILES: C[C@H](Nc1ncnc(N)c1C#N)c1cc2ncc(Cl)n2nc1-c1ccccc1 [Amdizalisib]
- activity loss of CYP3A4/5 (CYP3A4/5; substrate midazolam): 16.9%
- activity loss of CYP3A4/5 (CYP3A4/5; substrate testosterone): 11.7%
- Binding fraction to plasma proteins, Rat (plasma proteins; 0.1 µM): 87.2 ± 1.72%
- Binding fraction to plasma proteins, Rat (plasma proteins; 1 µM): 90.2 ± 0.65%
- Binding fraction to plasma proteins, Rat (plasma proteins; 20 µM): 89.9 ± 0.37%
- IC50 (OATP1B3): 5.03 µM
- Percentage transported (OATP1B3; human, 5 min, 0.3 μM, pH 7.4): 94.5%
- Uptake rate (OATP1B3; human, 5 min, 0.3 μM, pH 7.4): 62.4±5.58 pmol/mg protein/min
- Percentage transported (OATP1B3; human, 5 min, 1 μM, pH 7.4): 89.2%
- Uptake rate (OATP1B3; human, 5 min, 1 μM, pH 7.4): 59.1±6.36 pmol/mg protein/min
- Percentage transported (OATP1B3; human, 5 min, 3 μM, pH 7.4): 68.1%
- Uptake rate (OATP1B3; human, 5 min, 3 μM, pH 7.4): 46.2±10.1 pmol/mg protein/min
- Percentage transported (OATP1B3; human, 5 min, 10 μM, pH 7.4): 29.3%
- Uptake rate (OATP1B3; human, 5 min, 10 μM, pH 7.4): 22.4±1.00 pmol/mg protein/min
- Percentage transported (OATP1B3; human, 5 min, 30 μM, pH 7.4): 3.82%
- Uptake rate (OATP1B3; human, 5 min, 30 μM, pH 7.4): 6.76±0.372 pmol/mg protein/min
- Percentage transported (OATP1B3; human, 5 min, 100 μM, pH 7.4): -4.02%
- Uptake rate (OATP1B3; human, 5 min, 100 μM, pH 7.4): 1.99±0.315 pmol/mg protein/min
- calculated R value (OATP1B3) (OATP1B3; human, 5 min, pH 7.4): 5.1
- inhibition at 5 min, 0.3 µM (OATP1B3; human, pH 7.4): 5.47%
- inhibition at 5 min, 1 µM (OATP1B3; human, pH 7.4): 10.8%
- inhibition at 5 min, 3 µM (OATP1B3; human, pH 7.4): 31.9%
- inhibition at 5 min, 10 µM (OATP1B3; human, pH 7.4): 70.7%
- inhibition at 5 min, 30 µM (OATP1B3; human, pH 7.4): 96.2%
- inhibition at 5 min, 100 µM (OATP1B3; human, pH 7.4): 104%
- Enzyme activity Percent of PC (%) (CYP2C19; CYP2C19, donor eight, 0.3 µM): 2.58%
- Enzyme activity Percent of PC (%) (CYP2C19; CYP2C19, donor eight, 3 µM): -3.72%
- Enzyme activity Percent of PC (%) (CYP2C19; CYP2C19, donor eight, 20 µM): -16.6%
- Enzyme activity Percent of PC (%) (CYP2C19; CYP2C19, donor four, 0.3 µM): -2.17%
- Enzyme activity Percent of PC (%) (CYP2C19; CYP2C19, donor four, 3 µM): -13.5%
- Enzyme activity Percent of PC (%) (CYP2C19; CYP2C19, donor four, 20 µM): -28.3%
- Enzyme activity Percent of PC (%) (CYP2C19; CYP2C19, donor one, 0.3 µM): 6.39%
- Enzyme activity Percent of PC (%) (CYP2C19; CYP2C19, donor one, 3 µM): 1.83%
- Enzyme activity Percent of PC (%) (CYP2C19; CYP2C19, donor one, 20 µM): -19.2%
- induction of CYP2C19 enzyme activity (CYP2C19; up to 20 µM, all three donors): no induction potential

— article PMC11211886 (Frontiers in Pharmacology, 2024)
